Test results taken from patent US7550625B2, “Esters of florfenicol” (priority 2007, dated 2009).

How the values were obtained:
various bacteria = conditions: cited from earlier work
[1] = system: variety of microorganisms; conditions: cited from earlier work
[2] = added to serum in vitro; compared with florfenicol butyrate
[3] = Serum concentration of florfenicol after subcutaneous injection to an animal; type: in vivo
Excerpt: A lower Cmax advantageously avoids undesirable side-effects.

SMILES: CS(=O)(=O)c1ccc([C@@H](O)[C@@H](CF)NC(=O)C(Cl)Cl)cc1 [florfenicol]
- typical minimum inhibitory concentrations (MICs) (various bacteria): 0.3 to 1 µg/mL
- activity against microorganisms ([1]; Citrobacter, Proteus mirabilis, Proteus sp., Shigella, Salmonella, Providencia, Bacteroides, Staphylococcos aureus, Enterococci, Pasteurlla haemolytica, Pasteurella multocida, Haemophilus somnus, Haemophilus influenza): active
- resistance of microorganisms to the substance ([1]; Serratia marcescens, Pseudomonas aeruginosa, Acinetobacter): resistant

SMILES: COCCOCC(=O)O[C@H](c1ccc(S(C)(=O)=O)cc1)[C@@H](CF)NC(=O)C(Cl)Cl [formula (Ia)]
- rate of hydrolysis in serum [2]: hydrolyzed faster than florfenicol butyrate
- Cmax for the serum concentration of florfenicol ([3]; administered to an animal, compared with florfenicol): lower than the Cmax for the serum concentration of florfenicol when florfenicol is administered
- time period for which serum concentration of florfenicol is therapeutically effective ([3]; subcutaneous injection, compared with florfenicol or florfenicol butyrate): longer

SMILES: CN(C)CC(=O)OC(c1ccc(S(C)(=O)=O)cc1)C(CF)NC(=O)C(Cl)Cl (stereo not shown) [formula (Ib)]
- pharmacokinetic and pharmacodynamic profile ([3]; when administered to an animal, expected, compared with florfenicol and other florfenicol esters): superior pharmacokinetic and pharmacodynamic profile
